# From ChEMBL document CHEMBL1201862, “PubChem BioAssay data set” (2004)
#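 Cells were grown in 96-well plates and exposed to each compound for 48 hours at five concentrations; endpoints were interpolated linearly between bracketing concentrations, or set to the highest concentration if not reached. Abbreviation: GI50, concentration required for 50% inhibition of growth.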 The source made the active and inactive calls. No stated cut-off is given here; in the data, active = GI50 up to about 1.1 µM and inactive = higher.
# Tests used:
# Assay in all cases: NCI-60 cell line screen, 48 h
# HT-29 = test system: HT-29
# UACC-257 = test system: UACC-257
# OVCAR-3 = test system: OVCAR-3
# NCI-H226 = test system: NCI-H226
# EKVX = test system: EKVX
# ACHN = test system: ACHN
# K562 = test system: K562
# SK-MEL-5 = test system: SK-MEL-5
# OVCAR-8 = test system: OVCAR-8
# SF-295 = test system: SF-295
# SK-OV-3 = test system: SK-OV-3
# TK-10 = test system: TK-10
# SF-539 = test system: SF-539
# CCRF-CEM = test system: CCRF-CEM
# HCT-116 = test system: HCT-116
# LOX IMVI = test system: LOX IMVI
# MCF7 = test system: MCF7
# PC-3 = test system: PC-3
# T47D = test system: T47D
SMILES,GI50 (HT-29),GI50 (UACC-257),GI50 (OVCAR-3),GI50 (NCI-H226),GI50 (EKVX),GI50 (ACHN),GI50 (K562),GI50 (SK-MEL-5),GI50 (OVCAR-8),GI50 (SF-295),GI50 (SK-OV-3),GI50 (TK-10),GI50 (SF-539),GI50 (CCRF-CEM),GI50 (HCT-116),GI50 (LOX IMVI),GI50 (MCF7),GI50 (PC-3),GI50 (T47D)
O=C(Cc1nc(-c2ccccc2)cc(=O)n1-c1ccccc1Cl)c1ccncc1,> 100 µM (inactive),> 100 µM (inactive),> 100 µM (inactive),> 100 µM (inactive),> 100 µM (inactive),> 100 µM (inactive),> 100 µM (inactive),> 100 µM (inactive),> 100 µM (inactive),> 100 µM (inactive),> 100 µM (inactive),> 100 µM (inactive),> 100 µM (inactive),> 100 µM (inactive),> 100 µM (inactive),> 100 µM (inactive),,,
Cn1cc(C(=O)C[n+]2ccccc2)c2ccccc21,48.5 µM (inactive),> 100 µM (inactive),20.9 µM (inactive),12.5 µM (inactive),11.9 µM (inactive),> 100 µM (inactive),33.6 µM (inactive),> 100 µM (inactive),58.6 µM (inactive),38.4 µM (inactive),,> 100 µM (inactive),78.3 µM (inactive),61.9 µM (inactive),> 100 µM (inactive),> 100 µM (inactive),,,
C[N+]12c3ccccc3O[B-]1(c1ccccc1)Oc1ccccc12 (configuration not stated),73.5 µM (inactive),27.1 µM (inactive),31 µM (inactive),32.8 µM (inactive),84.5 µM (inactive),14.8 µM (inactive),28.6 µM (inactive),36.2 µM (inactive),28.6 µM (inactive),41 µM (inactive),33.7 µM (inactive),23.5 µM (inactive),26.9 µM (inactive),11.9 µM (inactive),38.5 µM (inactive),16.1 µM (inactive),,,
COC(=O)C1C(C(=O)OC)C2C(=O)C3C(C(=O)OC)C(C(=O)OC)C3C(=O)C12 (configuration not stated),> 100 µM (inactive),> 100 µM (inactive),,> 100 µM (inactive),> 100 µM (inactive),> 100 µM (inactive),> 100 µM (inactive),,> 100 µM (inactive),> 100 µM (inactive),> 100 µM (inactive),> 100 µM (inactive),> 100 µM (inactive),> 100 µM (inactive),> 100 µM (inactive),> 100 µM (inactive),,,
COc1ccc(OC)c(C2CCCc3c2cnc2nc(N)nc(N)c32)c1 (configuration not stated),< 0.01 µM (active),< 0.01 µM (active),,> 100 µM (inactive),> 100 µM (inactive),< 0.01 µM (active),< 0.01 µM (active),< 0.01 µM (active),< 0.01 µM (active),< 0.0143 µM (active),,0.0217 µM (active),< 0.0119 µM (active),,< 0.01 µM (active),< 0.01 µM (active),< 0.01 µM (active),> 71.1 µM (inactive),
O=C(Cc1ccccc1)NN1C(=O)C(Cl)C1c1ccccc1O (configuration not stated),8.05 µM (inactive),11.4 µM (inactive),2.64 µM (inactive),10 µM (inactive),4.07 µM (inactive),6.98 µM (inactive),14.4 µM (inactive),,22.4 µM (inactive),15.4 µM (inactive),20.3 µM (inactive),45.3 µM (inactive),,3.17 µM (inactive),5.56 µM (inactive),12.1 µM (inactive),,,
COc1ccc2nc(/C(N)=C\C#N)ccc2c1,47.6 µM (inactive),> 100 µM (inactive),31.6 µM (inactive),> 100 µM (inactive),0.15 µM (active),75.2 µM (inactive),31.6 µM (inactive),11.9 µM (inactive),36.8 µM (inactive),93.8 µM (inactive),,59.2 µM (inactive),46 µM (inactive),40.3 µM (inactive),20.3 µM (inactive),36 µM (inactive),> 100 µM (inactive),43.7 µM (inactive),30.9 µM (inactive)
CNC1=Nc2ccc(Cl)cc2C(c2ccccc2)=NN1C,56.5 µM (inactive),83 µM (inactive),45.4 µM (inactive),> 100 µM (inactive),> 100 µM (inactive),> 100 µM (inactive),51.2 µM (inactive),49.1 µM (inactive),> 100 µM (inactive),84.7 µM (inactive),,84.3 µM (inactive),> 100 µM (inactive),83.8 µM (inactive),66.7 µM (inactive),60.4 µM (inactive),,,
Cc1noc2c1C(=O)CCC2,> 100 µM (inactive),> 100 µM (inactive),> 100 µM (inactive),> 100 µM (inactive),> 100 µM (inactive),> 100 µM (inactive),> 100 µM (inactive),,> 100 µM (inactive),,> 100 µM (inactive),> 100 µM (inactive),> 100 µM (inactive),> 100 µM (inactive),> 100 µM (inactive),> 100 µM (inactive),,,
